Data as given in patent US20240398899A1 (priority 2021, published 2024).

Assays:
Assay in all cases: Alzheimer's biomarker multiplex analysis, scopolamine-damaged SH-SY5Y
Assay type in all cases: cell-based, human
Settings in all cases: Scopolamine (4 mM)
[1] = tested on: MPO
Method: (§1) After overnight incubation as in the previous examples, cells were treated with recombinant lectin protein having SEQ ID NO: 1 at different concentrations ranging from 0.001 μg/ml-1 μg/ml for 24 h for Parkinson disease and 0.01 μg/ml-25 μg/ml for 24 h for Alzheimer's disease. • Parkinson Disease: After 24 h of pre-treatment with recombinant lectin protein having SEQ ID NO: 1, cells were exposed (MPP+) for another 24 h. Cells treated with MPP+Iodide were included as Control. […] The cells treated with Galantamine were included as positive Control.
(§2) The levels of markers were determined by multiplex analysis as: Cell culture supernatants were diluted (1:2) with Calibrator Diluent. 50 μl of standard or sample was added per well. 50 μl of the microparticle cocktail was added to each well of the microplate and covered with a foil plate sealer. The plate was incubated for 2 hours at room temperature on a horizontal orbital microplate shaker. The plate was washed using a magnetic device designed to accommodate a microplate. Washing was done by applying the magnet to the bottom of the microplate, allowing 1 minute before removing the liquid, filling each well with wash buffer (100 μl) and allowing 1 minute before removing the liquid again. 50 μl of diluted Biotin-Antibody Cocktail was added to each well. Covered the plate with a foil plate sealer and incubated for 1 hour at room temperature on the shaker. Repeated the wash step. 50 μl of diluted Streptavidin-PE was added to each well. The plate was securely covered with a foil plate sealer and incubated for 30 minutes at room temperature on the shaker. Repeated the wash step. The microparticles were resuspended by adding 100 μl of Wash Buffer to each well. The plate was incubated for 2 minutes on the shaker and read within 90 minutes using Magpix® multiplex machine. Levels of biomarkers for Parkinson's and Alzheimer's disease were estimated using Magpix® multiplex machine.
(§3) For Alzheimer's disease the percent modulation in each sample was determined as follows: […]

[2] = tested on: RAGE
Method: as §1, §2, §3

[3] = tested on: b-NGF
Method: as §1, §2, §3

Structure (SMILES): COc1ccc2c3c1O[C@H]1C[C@@H](O)C=C[C@@]31CCN(C)C2 [Galantamine, reference compound]
- % Change of Biomarkers markers (wrt Control) MPO ([1]; 1 μM): −64%
- % Change of Biomarkers markers (wrt Control) MPO ([1]; 10 μM): −31.2%
- % Change of Biomarkers markers (wrt Control) MPO ([1]; 100 μM): −45.9%
- % Change of Biomarkers markers (wrt Control) RAGE ([2]; 1 μM): 0%
- % Change of Biomarkers markers (wrt Control) RAGE ([2]; 10 μM): 0%
- % Change of Biomarkers markers (wrt Control) RAGE ([2]; 100 μM): −38.7%
- % Change of Biomarkers markers (wrt Control) b-NGF ([3]; 1 μM): 9.1%
- % Change of Biomarkers markers (wrt Control) b-NGF ([3]; 10 μM): 0%
- % Change of Biomarkers markers (wrt Control) b-NGF ([3]; 100 μM): −9%
